Data as given in US10393744B2, “Peptides for targeting colorectal cancer, and medical use thereof” (UNIVERSITY OF ULSAN FOUNDATION FOR INDUSTRY COOPERATION, priority 2014, dated 2019).

Experiments:
[1] = test system: Radio-sensitive colorectal cancer tissue of patient (case C87); experiment: In vivo/ex vivo imaging and phage elution of Cy5.5-labeled peptide-expressing phages in mouse model transplanted with patient's colorectal cancer tissue (Example 4); parameters: species or system nude mouse; settings: for in vivo ROI: Cy5.5 fluorescence total flux standardized to Cy5.5 dye control; for pfu/mg (concentration of eluted phages relative to weight of cancer tissue) / ex vivo ROI: extracted cancer tissue; for ex vivo ROI: standardized to Cy5.5 dye control
Excerpt: (§1) Then, the distributed cancer tissue was kept in a specific preservative solution and transferred directly to an animal chamber, so as to maintain a state in which the cancer tissue was not separated from a patient yet. After an NOD/SCID mouse was anesthetized via intraperitoneal injection of anesthetics, the cancer tissue was cut into pieces each having a size of 3×3 mm. Next, each of both flanks of the NOD/SCID mouse was transplanted with a piece of the cut cancer tissues, and sutured. The NOD/SCID mouse was then recovered on a heating pad for about 2 hours (conditions of the preservative solution: HBSS containing 100 IU/ml penicillin, 100 μg/ml streptomycin, 100 μg/ml gentamicin, 2.5 μg/ml amphotericin B, and 5% fetal bovine serum). After completion of the transplantation, the NOD/SCID mouse was raised until tumors were formed. Meanwhile, the formation and growth of tumors were checked at least once a week. When the transplanted cancer tissues grew to a size of at least 500 mm^3, an extraction process was performed thereon. Then, the extracted cancer tissues were each cut into pieces each having a size of 3×3 mm for subculturing. A nude mouse was anesthetized via intraperitoneal injection of anesthetics, and a piece of the cut cancer tissues was transplanted subcutaneously on the right thigh of the nude mouse. A transplantation site was changed from the flank to the thigh so that irradiation can be locally done without affecting other organs during irradiation. That is, a finally used mouse model transplanted with a patient's colorectal cancer tissue in the present invention was a mouse model established in a way that a cancer tissue that underwent subculturing four times was re-transplanted to form a cancer tissue. When the size of the cancer tissue was increased to about 250 mm^3, only the cancer tissue was irradiated with 2 grays (Gy) of radiation. After having recovery time for no longer than 24 hours, in vivo peptide screening was performed. Here, a non-irradiated population, which is a control group, was also subjected to screening in a separate manner.
(§2) In detail, regarding in vivo imaging verification, the peptide-expressing phage was amplified, and a process of linking a fluorescent probe (Cy5.5) was performed. In particular, 1 μg/μl of N-hydroxysuccinimide esters of Cy5.5 (Amersham) was added to 1 mL of bicarbonate buffer (pH 8.3) having the phage concentration of 10^12 plaque forming units (pfu), and then, in a condition where a dark environment was maintained, a phage-surface protein was linked to the Cy5.5 fluorescent probe at room temperature for 3 hours. That is, amine groups of the phage-surface protein were chemically linked to N-hydroxysuccinimide esters of the Cy5.5 fluorescent probe via a covalent bond. The peptide-expressing phages to which the Cy5.5 fluorescent probe was linked were each obtained by precipitation with 170 μl of 20% (w/v) PEG 8000/2.5 M NaCl solution and purification. To determine a proportion of the Cy5.5 fluorescent probe linked to each of the finally obtained phage samples, an IVIS spectrum imaging system (Xenogen) was used for measurement, and region of interest (ROI) values were determined using the software program of a corresponding device.
(§3) In addition, on the last day of the in vivo imaging, the cancer tissues were each extracted, to thereby obtain ex vivo images thereof.

[2] = test system: Radio-resistant colorectal cancer tissue of patient (case C65); experiment: as above; parameters: species or system nude mouse; settings: for in vivo ROI: Cy5.5 fluorescence total flux standardized to Cy5.5 dye control; for pfu/mg (concentration of eluted phages relative to weight of cancer tissue) / ex vivo ROI: extracted cancer tissue; for ex vivo ROI: standardized to Cy5.5 dye control
Excerpt: as §1, §2, §3

[3] = case C87, non-irradiated population
[4] = case C65, non-irradiated population
[5] = case C87, irradiated population (2 Gy)
[6] = case C65, irradiated population (2 Gy)

AFKSPSG [E14]
in vivo ROI [1, 3]: 0.70 | pfu/mg (concentration of eluted phages relative to weight of cancer tissue) [1, 3]: 2.89 pfu/mg | ex vivo ROI [1, 3]: 0.55

AIKNTKS [E8]
in vivo ROI [1, 3]: 0.90 | pfu/mg (concentration of eluted phages relative to weight of cancer tissue) [1, 3]: 15.00 pfu/mg | ex vivo ROI [1, 3]: 0.49

ASKSTHD [A7]
in vivo ROI [2, 4]: 1.80 | pfu/mg (concentration of eluted phages relative to weight of cancer tissue) [2, 4]: 27.14 pfu/mg | ex vivo ROI [2, 4]: 1.08

Cy5.5 [reference compound]
in vivo ROI [1, 5]: 1.00 | ex vivo ROI [1, 5]: 1.00 | in vivo ROI [1, 3]: 1.00 | ex vivo ROI [1, 3]: 1.00 | in vivo ROI [2, 6]: 1.00 | ex vivo ROI [2, 6]: 1.00 | in vivo ROI [2, 4]: 1.00 | ex vivo ROI [2, 4]: 1.00

DETSGQI [E12]
in vivo ROI [1, 3]: 1.24 | pfu/mg (concentration of eluted phages relative to weight of cancer tissue) [1, 3]: 5.56 pfu/mg | ex vivo ROI [1, 3]: 1.07

DLLHRGA [A9]
in vivo ROI [2, 4]: 2.35 | pfu/mg (concentration of eluted phages relative to weight of cancer tissue) [2, 4]: 54.17 pfu/mg | ex vivo ROI [2, 4]: 0.56

DNSKLVE [F4]
in vivo ROI [1, 5]: 1.59 | pfu/mg (concentration of eluted phages relative to weight of cancer tissue) [1, 5]: 69.18 pfu/mg | ex vivo ROI [1, 5]: 3.11

DVSGNW [A8]
in vivo ROI [2, 4]: 2.99 | pfu/mg (concentration of eluted phages relative to weight of cancer tissue) [2, 4]: 8.56 pfu/mg | ex vivo ROI [2, 4]: 1.57

GGNSNQR [E5]
in vivo ROI [1, 3]: 0.92 | pfu/mg (concentration of eluted phages relative to weight of cancer tissue) [1, 3]: 15.96 pfu/mg | ex vivo ROI [1, 3]: 0.76

GQSGARF [F8]
in vivo ROI [1, 5]: 1.18 | pfu/mg (concentration of eluted phages relative to weight of cancer tissue) [1, 5]: 6.10 pfu/mg | ex vivo ROI [1, 5]: 1.92

GYSSFNR [B6]
in vivo ROI [1, 3]: 1.12 | pfu/mg (concentration of eluted phages relative to weight of cancer tissue) [1, 3]: 3.96 pfu/mg | ex vivo ROI [1, 3]: 0.62 | in vivo ROI [2, 6]: 3.03 | pfu/mg (concentration of eluted phages relative to weight of cancer tissue) [2, 6]: 211.76 pfu/mg | ex vivo ROI [2, 6]: 2.06

HKTEHRS [E18]
in vivo ROI [1, 3]: 0.69 | pfu/mg (concentration of eluted phages relative to weight of cancer tissue) [1, 3]: 4.15 pfu/mg | ex vivo ROI [1, 3]: 0.21

KISLPHN [E13]
in vivo ROI [1, 3]: 1.50 | pfu/mg (concentration of eluted phages relative to weight of cancer tissue) [1, 3]: 1.22 pfu/mg | ex vivo ROI [1, 3]: 0.93

KLTQMM [F1]
in vivo ROI [1, 5]: 1.63 | pfu/mg (concentration of eluted phages relative to weight of cancer tissue) [1, 5]: 6.73 pfu/mg | ex vivo ROI [1, 5]: 2.39

LGSVGRD [F7]
in vivo ROI [1, 5]: 1.61 | pfu/mg (concentration of eluted phages relative to weight of cancer tissue) [1, 5]: 141.04 pfu/mg | ex vivo ROI [1, 5]: 3.97

LKLGEKW [B7]
in vivo ROI [1, 5]: 1.00 | pfu/mg (concentration of eluted phages relative to weight of cancer tissue) [1, 5]: 1.90 pfu/mg | ex vivo ROI [1, 5]: 2.92 | in vivo ROI [2, 6]: 1.72 | pfu/mg (concentration of eluted phages relative to weight of cancer tissue) [2, 6]: 3.45 pfu/mg | ex vivo ROI [2, 6]: 0.62

LKTSGTY [E15]
in vivo ROI [1, 3]: 0.77 | pfu/mg (concentration of eluted phages relative to weight of cancer tissue) [1, 3]: 6.13 pfu/mg | ex vivo ROI [1, 3]: 0.47

LQPKASQ [A6]
in vivo ROI [2, 4]: 2.75 | pfu/mg (concentration of eluted phages relative to weight of cancer tissue) [2, 4]: 15.4 pfu/mg | ex vivo ROI [2, 4]: 1.47

LTGSVNK [E10]
in vivo ROI [1, 3]: 1.19 | pfu/mg (concentration of eluted phages relative to weight of cancer tissue) [1, 3]: 2.25 pfu/mg | ex vivo ROI [1, 3]: 1.00

MARYMSA [A10]
in vivo ROI [2, 4]: 2.26 | pfu/mg (concentration of eluted phages relative to weight of cancer tissue) [2, 4]: 183.16 pfu/mg | ex vivo ROI [2, 4]: 1.58

MNFIQKN [E11]
in vivo ROI [1, 3]: 1.05 | pfu/mg (concentration of eluted phages relative to weight of cancer tissue) [1, 3]: 4.43 pfu/mg | ex vivo ROI [1, 3]: 0.34

NGNSNTL [F9]
in vivo ROI [1, 5]: 1.77 | pfu/mg (concentration of eluted phages relative to weight of cancer tissue) [1, 5]: 95.24 pfu/mg | ex vivo ROI [1, 5]: 4.45

NTWMKSK [A11]
in vivo ROI [2, 4]: 1.93 | pfu/mg (concentration of eluted phages relative to weight of cancer tissue) [2, 4]: 6.71 pfu/mg | ex vivo ROI [2, 4]: 0.95

QLWQKEQ [F5]
in vivo ROI [1, 5]: 1.63 | pfu/mg (concentration of eluted phages relative to weight of cancer tissue) [1, 5]: 144.55 pfu/mg | ex vivo ROI [1, 5]: 3.72

QQTKNYY [E7]
in vivo ROI [1, 3]: 2.02 | pfu/mg (concentration of eluted phages relative to weight of cancer tissue) [1, 3]: 58.32 pfu/mg | ex vivo ROI [1, 3]: 1.38

RSTGSSC [E16]
in vivo ROI [1, 3]: 0.50 | pfu/mg (concentration of eluted phages relative to weight of cancer tissue) [1, 3]: 2.14 pfu/mg | ex vivo ROI [1, 3]: 0.24

SFFPFST [F3]
in vivo ROI [1, 5]: 1.07 | pfu/mg (concentration of eluted phages relative to weight of cancer tissue) [1, 5]: 22.31 pfu/mg | ex vivo ROI [1, 5]: 2.64

SNVYDHN [A3]
in vivo ROI [2, 4]: 1.62 | pfu/mg (concentration of eluted phages relative to weight of cancer tissue) [2, 4]: 34.8 pfu/mg | ex vivo ROI [2, 4]: 0.67

STEHTRS [A4]
in vivo ROI [2, 4]: 3.20 | pfu/mg (concentration of eluted phages relative to weight of cancer tissue) [2, 4]: 264.86 pfu/mg | ex vivo ROI [2, 4]: 1.83

STMNGKV [B1]
in vivo ROI [2, 6]: 1.52 | pfu/mg (concentration of eluted phages relative to weight of cancer tissue) [2, 6]: 16.67 pfu/mg | ex vivo ROI [2, 6]: 1.48

SWGDRIL [A5]
in vivo ROI [2, 4]: 2.16 | pfu/mg (concentration of eluted phages relative to weight of cancer tissue) [2, 4]: 51.38 pfu/mg | ex vivo ROI [2, 4]: 1.52

TAFSLGK [E6]
in vivo ROI [1, 3]: 0.78 | pfu/mg (concentration of eluted phages relative to weight of cancer tissue) [1, 3]: 4.24 pfu/mg | ex vivo ROI [1, 3]: 0.77

TNPYPLD [F10]
in vivo ROI [1, 5]: 1.91 | pfu/mg (concentration of eluted phages relative to weight of cancer tissue) [1, 5]: 7.86 pfu/mg | ex vivo ROI [1, 5]: 1.74

TVRSSAE [B3]
in vivo ROI [2, 6]: 2.38 | pfu/mg (concentration of eluted phages relative to weight of cancer tissue) [2, 6]: 195.40 pfu/mg | ex vivo ROI [2, 6]: 1.63

TVRTSAV [E9]
in vivo ROI [1, 3]: 1.27 | pfu/mg (concentration of eluted phages relative to weight of cancer tissue) [1, 3]: 86.40 pfu/mg | ex vivo ROI [1, 3]: 1.20

VPSQKSK [B4]
in vivo ROI [2, 6]: 2.12 | pfu/mg (concentration of eluted phages relative to weight of cancer tissue) [2, 6]: 20.62 pfu/mg | ex vivo ROI [2, 6]: 1.36

VQMPAHS [E4]
in vivo ROI [1, 3]: 0.84 | pfu/mg (concentration of eluted phages relative to weight of cancer tissue) [1, 3]: 5.00 pfu/mg | ex vivo ROI [1, 3]: 0.94

YVSKNNS [E17]
in vivo ROI [1, 3]: 1.66 | pfu/mg (concentration of eluted phages relative to weight of cancer tissue) [1, 3]: 204.00 pfu/mg | ex vivo ROI [1, 3]: 1.29
